Test [1] has as its system Hartley VAF outbred guinea pigs. In words: Allergic conjunctivitis in passively sensitized guinea pigs (conjunctival EPO activity). To be noted: ≦0.1% qd topical, 1 hour prior to ovalbumin challenge; reduction of conjunctival EPO activity vs dexamethasone. The format is in vivo. Also noted: key: +: a ≦0.1% qd dose was statistically equivalent to dexamethasone with respect to reduction of EPO activity; −: the compound was statistically inferior to dexamethasone and not different than vehicle. The protocol: Male Hartley VAF outbred guinea pigs were passively sensitized to ovalbumin by a single OD subconjunctival injection of undiluted guinea pig anti-ovalbumin antiserum 24 hours before OD topical challenge with 500 μg ovalbumin in saline. Control animals were injected with saline only and challenged with ovalbumin. To determine acute phase drug efficacy, 30 min after challenge animals were clinically scored by a masked observer for severity of signs of conjunctivitis based on a standard scale. Test compounds were administered topically 1 hour prior to challenge (QD protocol), or 1 hour prior to challenge and again 8 hours after challenge (BID protocol). Twenty-four hours after challenge, animals were euthanized and conjunctivae were harvested for determination of tissue eosinophil peroxidase (EPO) concentration as a marker of allergic inflammation. Homogenates of freshly collected tissues were prepared by shaking the tissues in 2 mL round-bottom tubes containing 0.5 mL of homogenization buffer (50 mM Tris HCl, pH 8.0, 6 mM KBr) and one 5-mm stainless steel bead on a Qiagen TissueLyser at 30 Hz for 5 min. Homogenates were frozen and thawed once, then centrifuged at 10,000 rpm for 5 min. EPO activity in supernatants was measured by reacting diluted homogenates with a solution of 6 mM o-phenylenediamine substrate and 8.8 mM H2O2 in homogenization buffer for 3 min. The reaction was stopped with 4M H2SO4 and absorbances were measured at […] on a spectrophotometric plate reader. Total EPO in samples was calculated from a standard curve of recombinant human EPO in each assay. EPO activity was normalized to total protein concentration (Pierce BCA assay) in supernatants. Background EPO activity was determined from the unsensitized, antigen-challenged control group. Percent inhibition was calculated from the sensitized, antigen-challenged, vehicle-treated control group in each experiment. Ovalbumin-injected animals dosed topically with 0.1% w/v dexamethasone (dex) served as positive control. Groups were compared by ANOVA with Dunnett's or Tukey's post-hoc tests where appropriate with significance assigned at the 95% confidence level.
The table below summarizes the results.

Another test addresses T1, human H4 (Homo sapiens, UniProt Q9H3N8).
T1 construct: host or cells: CHO-K1
The test is described as follows: In vitro histamine receptor cell-based assay (aequorin bioluminescence), H4 antagonism. To be noted: CHO-K1 cells expressing human H4, aequorin and Gα16; histamine at EC80; read-out: H4 Antagonist EC50. Summed up: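 CHO-K1 cells stably expressing human H4, Gα16 and mitochondrial aequorin, loaded with 5 μM coelenterazine-h, preincubated 15 min at room temperature with compound, then challenged with histamine at EC80.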

For test [2], the system named is Hartley VAF outbred guinea pigs. In words: Allergic conjunctivitis in passively sensitized guinea pigs (conjunctival EPO activity). Format: in vivo. Also on record: key: +: a 0.01% bid dose was statistically equivalent to dexamethasone with respect to reduction of EPO activity; −: the compound was statistically inferior to dexamethasone and not different than vehicle. To be noted: 0.01% bid topical, 1 hour prior to and 8 hours after ovalbumin challenge; reduction of conjunctival EPO activity vs dexamethasone.

Another test has as its target T2, human H1 (Homo sapiens, UniProt P35367).
T2 construct: host or cells: CHO-K1
In words: In vitro histamine receptor cell-based assay (aequorin bioluminescence), H1 antagonism. The settings on record: CHO-K1 cells expressing human H1 and aequorin; histamine at EC80; read-out: H1 Antagonist EC50. The gist of the method:
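Stable CHO-K1 lines expressing human H1 or H4 (H4 with Gα16) plus mitochondrial aequorin, loaded 4 h with 5 μM coelenterazine-h at ~21 °C. Compounds preincubated 15 min, then histamine at EC80 added; bioluminescence decrease (AUC or max–min) expressed as % of positive control (diphenhydramine for H1, JNJ7777120 for H4, 10 μM).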

Our source for the QD activity, EC50 and BID activity values is patent publication US20120065187A1 (ALCON RESEARCH, LTD, priority 2008, published 2012).

Broadly, the EC50 is the concentration needed to bring the measured effect to its halfway point.

T2 sequence (P35367 whole entry): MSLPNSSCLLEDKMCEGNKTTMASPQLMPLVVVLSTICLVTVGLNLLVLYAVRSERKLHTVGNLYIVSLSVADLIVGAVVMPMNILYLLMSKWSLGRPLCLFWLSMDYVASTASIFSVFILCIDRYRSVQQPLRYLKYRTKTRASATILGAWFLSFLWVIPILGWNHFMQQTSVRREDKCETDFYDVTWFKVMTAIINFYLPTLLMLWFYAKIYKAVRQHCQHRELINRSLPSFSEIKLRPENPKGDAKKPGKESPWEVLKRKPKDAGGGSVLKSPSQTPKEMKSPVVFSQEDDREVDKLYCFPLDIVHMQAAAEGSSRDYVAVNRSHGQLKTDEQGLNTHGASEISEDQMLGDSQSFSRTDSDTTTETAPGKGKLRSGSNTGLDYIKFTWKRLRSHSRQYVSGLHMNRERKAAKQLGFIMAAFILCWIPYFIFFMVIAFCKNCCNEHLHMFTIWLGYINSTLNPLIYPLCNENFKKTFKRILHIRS
T1 sequence (Q9H3N8 whole entry): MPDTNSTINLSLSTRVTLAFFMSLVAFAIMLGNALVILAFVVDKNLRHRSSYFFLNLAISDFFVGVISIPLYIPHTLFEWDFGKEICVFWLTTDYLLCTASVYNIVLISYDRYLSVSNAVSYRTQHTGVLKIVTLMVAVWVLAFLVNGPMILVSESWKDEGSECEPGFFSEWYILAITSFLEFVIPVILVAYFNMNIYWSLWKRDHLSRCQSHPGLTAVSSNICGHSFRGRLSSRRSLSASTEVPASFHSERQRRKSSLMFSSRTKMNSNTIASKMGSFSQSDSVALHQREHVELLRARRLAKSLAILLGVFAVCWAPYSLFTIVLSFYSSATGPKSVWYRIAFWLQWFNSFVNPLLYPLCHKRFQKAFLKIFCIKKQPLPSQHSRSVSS

Consider `CN1CCN(c2nc3ccc(Cl)cc3n3cnnc23)CC1` [Example 55, 8-chloro-4-(4-methylpiperazin-1-yl)-[1,2,4]triazolo[4,3-a]quinoxaline], for which, in test [1], the QD activity entry is “+”. Besides, the EC50 at human H4 is < 10 µM; at human H1 it was > 10 µM. Moreover, in test [2], the BID activity entry is “+”.
Regarding `Clc1ccc2nc(N3CCNCC3)c3nncn3c2c1` [Example 57, 8-chloro-4-(piperazin-1-yl)-[1,2,4]triazolo[4,3-a]quinoxaline], the QD activity result in test [1] was “+”. Besides, the values for the EC50 at human H4 and at human H1 were < 10 µM and > 10 µM, respectively. Further, the BID activity entry in test [2] is “+”.
